Experimental data: US7795228B2, “Spiroheterocyclic glycosides and methods of use” (Theracos, Inc., priority 2006, dated 2010)

Legend:
human SGLT2 = target: T1, human SGLT2 (Homo sapiens, UniProt P31639); experiment: Methyl-α-D-[U-14C]glucopyranoside uptake assay, cells stably expressing human SGLT2; format: cell-based; settings: HEK293.ETN cells expressing human SGLT2, 1.5 h incubation
T1 construct: A full-length cDNA clone expressing human SGLT2 (GenScript Corporation)
T1 sequence (P31639 1-672): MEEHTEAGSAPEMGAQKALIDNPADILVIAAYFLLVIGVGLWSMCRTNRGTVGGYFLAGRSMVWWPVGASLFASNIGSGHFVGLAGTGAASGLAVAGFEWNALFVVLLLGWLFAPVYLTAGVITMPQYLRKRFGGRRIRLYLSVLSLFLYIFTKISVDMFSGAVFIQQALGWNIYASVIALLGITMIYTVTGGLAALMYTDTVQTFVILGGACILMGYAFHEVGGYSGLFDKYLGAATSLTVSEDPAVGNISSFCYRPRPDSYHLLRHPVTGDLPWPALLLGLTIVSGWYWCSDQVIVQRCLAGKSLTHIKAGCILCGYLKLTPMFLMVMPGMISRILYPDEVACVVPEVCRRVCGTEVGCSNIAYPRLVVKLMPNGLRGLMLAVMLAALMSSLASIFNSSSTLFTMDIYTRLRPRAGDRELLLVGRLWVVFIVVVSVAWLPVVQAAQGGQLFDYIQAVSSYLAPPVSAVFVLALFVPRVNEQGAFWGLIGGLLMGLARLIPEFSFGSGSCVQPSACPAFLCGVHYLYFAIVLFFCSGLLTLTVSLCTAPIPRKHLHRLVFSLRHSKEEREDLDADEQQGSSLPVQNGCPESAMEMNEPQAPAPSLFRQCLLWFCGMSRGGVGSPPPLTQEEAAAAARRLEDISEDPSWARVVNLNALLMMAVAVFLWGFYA
From the text: A full-length cDNA clone expressing human SGLT2 (GenScript Corporation) was subcloned into Hind III and Not I sites of pEAK15 expression vector. Clones harboring the cDNA inserts were identified by restriction analysis.
Plasmid containing human SGLT2 was linearized with Nsi I and purified by agarose gel electrophoresis. Using Lipofectamine 2000 Transfection Reagent (Invitrogen Corporation), DNA was transfected into HEK293.ETN cells and cultured in Dulbecco's Modified Eagle Medium (DMEM) containing 10% fetal bovine serum (FBS) at 37° C. under 5% CO2 for 24 h. Transfectants were selected in the same growth medium supplemented with puromycin (Invitrogen Corporation) for two weeks. Puromycin-resistant cells were recovered and seeded on a fresh 96-well plate (single cell per well) and cultured in the presence of puromycin until cells became confluent. Puromycin-resistant clones were evaluated for SGLT2 activity in the methyl-α-D-[U-^14C]glucopyranoside uptake assay described below.
(§1) Cells expressing SGLT1 or SGLT2 were seeded on 96-well ScintiPlate scintillating plates (PerkinElmer, Inc.) in DMEM containing 10% FBS (1×10^5 cells per well in 100 μl medium) incubated at 37° C. under 5% CO2 for 48 h prior to the assay. Cells were washed twice with 150 μl of either sodium buffer (137 mM NaCl, 5.4 mM KCl, 2.8 mM CaCl2, 1.2 mM MgCl2, 10 mM tris(hydroxymethyl)aminomethane/N-2-hydroxyethylpiperazine-N′-ethanesulfonic acid [Tris/Hepes], pH 7.2) or sodium-free buffer (137 mM N-methyl-glucamine, 5.4 mM KCl, 2.8 mM CaCl2, 1.2 mM MgCl2, 10 mM Tris/Hepes, pH 7.2). Test compound in 50 μl each of sodium or sodium-free buffer containing 40 μCi/ml methyl-α-D-[U-^14C] glucopyranoside (Amersham Biosciences/GE Healthcare), either with (symbols in parentheses) or without (symbols without parentheses) 25% human serum, was added per well of a 96-well plate and incubated at 37° C. with shaking for either 2 h (SGLT1 assay) or 1.5 h (SGLT2 assay). Cells were washed twice with 150 μl of wash buffer (137 mM N-methylglucamine, 10 mM Tris/Hepes, pH 7.2) and methyl-α-D-[U-^14C]glucopyranoside uptake was quantitated using a TopCount scintillation counter (PerkinElmer, Inc.). Sodium-dependent glucopyranoside uptake was measured by subtracting the values obtained with sodium-free buffer from those obtained using sodium buffer (average of triplicate determinations).

human SGLT1 = target: T2, human SGLT1 (Homo sapiens, UniProt P13866); experiment: Methyl-α-D-[U-14C]glucopyranoside uptake assay, human SGLT1 expressing cells; format: cell-based; settings: COS-7 cells expressing human SGLT1, 2 h incubation
T2 construct: Full-length human SGLT1 cDNA on pDream2.1 expression vector was obtained from GenScript Corporation; host or cells: COS-7 cells
T2 sequence (P13866 1-664): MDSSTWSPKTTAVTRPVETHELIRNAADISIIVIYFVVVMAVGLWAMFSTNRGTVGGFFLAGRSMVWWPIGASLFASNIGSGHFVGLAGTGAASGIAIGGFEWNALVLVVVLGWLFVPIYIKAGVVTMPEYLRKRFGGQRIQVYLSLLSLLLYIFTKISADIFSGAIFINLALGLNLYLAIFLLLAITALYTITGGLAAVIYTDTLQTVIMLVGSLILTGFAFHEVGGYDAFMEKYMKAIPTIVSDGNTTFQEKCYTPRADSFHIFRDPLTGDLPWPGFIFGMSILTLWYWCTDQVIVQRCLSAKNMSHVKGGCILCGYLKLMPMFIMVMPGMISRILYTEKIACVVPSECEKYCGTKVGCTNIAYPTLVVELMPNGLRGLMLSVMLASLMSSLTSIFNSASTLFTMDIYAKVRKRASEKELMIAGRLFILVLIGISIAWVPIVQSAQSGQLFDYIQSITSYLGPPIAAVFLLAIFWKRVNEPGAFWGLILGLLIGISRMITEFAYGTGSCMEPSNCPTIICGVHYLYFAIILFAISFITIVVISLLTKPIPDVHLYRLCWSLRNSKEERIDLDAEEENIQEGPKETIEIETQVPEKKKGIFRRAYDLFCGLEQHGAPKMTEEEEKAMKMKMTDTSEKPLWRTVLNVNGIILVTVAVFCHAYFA
Protocol: Full-length human SGLT1 cDNA on pDream2.1 expression vector was obtained from GenScript Corporation and propagated in Escherichia coli strain DH5α using Luria-Bertani (LB) medium containing ampicillin. Plasmid DNA was isolated using the QIAGEN Plasmid Midi Kit (QIAGEN Inc.). […] Transfected cells were stored in DMEM containing 10% dimethyl sulfoxide (DMSO) at −80° C.
as §1

[1] = without human serum (symbols without parentheses)
[2] = with 25% human serum (symbols in parentheses)

| SMILES | IC50 (human SGLT2; [1]) | IC50 (human SGLT1; [1]) | IC50 (human SGLT2; [2]) | IC50 (human SGLT1; [2]) |
| --- | --- | --- | --- | --- |
| CCc1ccc(Cc2cc3c(cc2Cl)OC(C)(C)C[C@]32O[C@H](CO)[C@@H](O)[C@H](O)[C@H]2O)cc1 [Compound 57, (2′S,3′R,4′S,5′S,6′R)-7-chloro-6-(4-ethylbenzyl)-6′-(hydroxymethyl)-2,2-dimethyl-3′,4′,5′,6′-tetrahydrospiro[chroman-4,2′-pyran]-3′,4′,5′-triol] | – | – | < 1 µM | > 100 µM |
| CCc1ccc(Cc2cc3c(cc2Cl)OC(C)(CO)C[C@]32O[C@H](CO)[C@@H](O)[C@H](O)[C@H]2O)cc1 (stereo partly drawn) [Compound 52, (2′S,3′R,4′S,5′S,6′R)-7-chloro-6-(4-ethylbenzyl)-2,6′-bis(hydroxymethyl)-2-methyl-3′,4′,5′,6′-tetrahydrospiro[chroman-4,2′-pyran]-3′,4′,5′-triol] | – | – | < 1 µM | > 100 µM |
| CCc1ccc(Cc2ccc3c(c2)[C@]2(CCO3)O[C@H](CO)[C@@H](O)[C@H](O)[C@H]2O)cc1 [Compound 12, (2′S,3′R,4′S,5′S,6′R)-6-(4-ethylbenzyl)-6′-(hydroxymethyl)-3′,4′,5′,6′-tetrahydrospiro[chroman-4,2′-pyran]-3′,4′,5′-triol] | < 1 µM | > 100 µM | – | – |
| CCc1ccc(Cc2cc3c(cc2Cl)OC(OC)C[C@]32O[C@H](CO)[C@@H](O)[C@H](O)[C@H]2O)cc1 (stereo partly drawn) [Compound 43, (2′S,3′R,4′S,5′S,6′R)-7-chloro-6-(4-ethylbenzyl)-6′-(hydroxymethyl)-2-methoxy-3′,4′,5′,6′-tetrahydrospiro[chroman-4,2′-pyran]-3′,4′,5′-triol] | < 1 µM | > 100 µM | – | – |

Now from value to molecule:

| IC50 (human SGLT2; [1]) | IC50 (human SGLT1; [1]) | IC50 (human SGLT2; [2]) | IC50 (human SGLT1; [2]) | SMILES |
| --- | --- | --- | --- | --- |
| < 1 µM | > 100 µM | – | – | CCc1ccc(Cc2cc3c(cc2Cl)OC(O)C[C@]32O[C@H](CO)[C@@H](O)[C@H](O)[C@H]2O)cc1 (stereo partly drawn) [Compound 44, (2′S,3′R,4′S,5′S,6′R)-7-chloro-6-(4-ethylbenzyl)-6′-(hydroxymethyl)-3′,4′,5′,6′-tetrahydrospiro[chroman-4,2′-pyran]-2,3′,4′,5′-tetraol] |
| < 1 µM | 10 to 100 µM | – | – | CCc1ccc(Cc2cc3c(cc2Cl)OCC[C@]32O[C@H](CO)[C@@H](O)[C@H](O)[C@H]2O)cc1 [Compound 20, (2′S,3′R,4′S,5′S,6′R)-7-chloro-6-(4-ethylbenzyl)-6′-(hydroxymethyl)-3′,4′,5′,6′-tetrahydrospiro[chroman-4,2′-pyran]-3′,4′,5′-triol] |
| – | – | < 1 µM | 10 to 100 µM | CCc1ccc(Cc2cc3c(cc2Cl)OCCC[C@]32O[C@H](CO)[C@@H](O)[C@H](O)[C@H]2O)cc1 [Compound 38, (2′S,3′R,4′S,5′S,6′R)-8-chloro-7-(4-ethylbenzyl)-6′-(hydroxymethyl)-3,3′,4,4′,5′,6′-hexahydro-2H-spiro[benzo[b]oxepine-5,2′-pyran]-3′,4′,5′-triol] |
| – | – | < 1 µM | 10 to 100 µM | CCc1ccc(Cc2cc3c(cc2Cl)OC[C@]32O[C@H](CO)[C@@H](O)[C@H](O)[C@H]2O)cc1 [Compound 30, (2′R,3′R,4′S,5′S,6′R)-6-chloro-5-(4-ethylbenzyl)-6′-(hydroxymethyl)-3′,4′,5′,6′-tetrahydro-2H-spiro[benzofuran-3,2′-pyran]-3′,4′,5′-triol] |
| – | – | < 1 µM | > 100 µM | CCc1ccc(Cc2cc3c(cc2Cl)OC(C)C[C@]32O[C@H](CO)[C@@H](O)[C@H](O)[C@H]2O)cc1 (stereo partly drawn) [Compound 47, (2′S,3′R,4′S,5′S,6′R)-7-chloro-6-(4-ethylbenzyl)-6′-(hydroxymethyl)-2-methyl-3′,4′,5′,6′-tetrahydrospiro[chroman-4,2′-pyran]-3′,4′,5′-triol] |
